# Test results as given in PMC12830042, “Investigating the impact of charge and hydrophilicity on peptide-mucin interactions using a simple mucin model” (AAPS open, 2025).
# System: Mucin type II from porcine stomach
# Assay: Peptide diffusion across a mono-component mucin layer (Transwell donor to acceptor chamber)
# Format: in vitro ADME
# Conditions: for time window in which acceptor concentration plateaued / leveled off: donor 266 and 133 μg/mL (both concentrations); for time window in which acceptor concentration plateaued / leveled off / time window in which acceptor concentration plateaued: mucin layer, pH 6.8, HPLC; for maximum concentration in the acceptor chamber: ~2.5% (w/v) Type II porcine mucin on Transwell, phosphate buffer pH 6.8, 37°C, over 6 h, HPLC-UV 214 nm
# Experimental: Around 2.5% (w/v) of Type II porcine mucin was added to the donor side of the Transwell™ plate along with 300–1000 μL of 6.8 pH phosphate buffer. The mixture was shaken at 37°C for 45–60 min until the proper suspension was attained. Then, 1–2 mL of phosphate buffer at 6.8 pH was added to the acceptor side of the Transwell™ plate.
# Fig. 1 A schematic diagram of the diffusion chamber to study peptide diffusion through a mucin layer. The well consists of donor and acceptor chambers separated by a mucin layer. The peptide was added to the donor chamber, and the diffusion of the peptide was monitored by its appearance in the acceptor chamber. The peptide in the acceptor chamber was sampled as a function of time, and the peptide concentration was determined by fluorescence spectroscopy, HPLC, or mass spectrometry
# Initially, FITC-ADT10 and FITC-HAV10 peptides were used to test the mucin model in phosphate buffer at pH 6.8. Different concentrations of peptide in phosphate buffer at pH 6.8 were added to the donor chamber; the acceptor chamber contained a phosphate buffer at pH 6.8 in the Transwell™. At predetermined time points, 100 μL aliquots were taken from the acceptor chamber, transferred into 96-well plates, and replaced with pre-heated phosphate buffer pH 6.8. The aliquots were then analyzed by fluorescence spectroscopy plate reader at […].
# The diffusion of each unlabeled peptide from the donor-to-acceptor chambers was analyzed by Agilent® 1200 HPLC equipped with a Zorbax C18 column with 3.5 μm particle size and dimensions of 4.6 × 50 mm. The column temperature was held at 30°C during the chromatographic run. Mobile phase A was 0.1% trifluoroacetic acid in Milli-Q water, and mobile phase B was 0.085% trifluoroacetic acid in acetonitrile. The detector was a UV–Vis detector monitoring at 214 nm wavelengths. Calibration curves were prepared in phosphate buffer pH 6.8 in concentrations ranging from 1 to 266 μg/mL.
# Student t-tests were used to analyze the difference between the percentage diffused of FITC-HAV10 and FITC-ADT10, octreotide and octreotide A5, and lanreotide and lanreotide A5. The difference in diffusion percentages of ADT peptides was analyzed using ANOVA with Student − Newman − Keul post hoc comparison of the means and Dunnett’s Test comparing DTPPD, DTPPT, and DTPPVK with ADTC5. Statistical significance was set at p < 0.05 unless otherwise stated.
compound,measurement,setting,value
"Cyclo(1,7)Ac-CDTPPVC-NH2 (disulfide) [ADTC5, cyclic ADT cadherin peptide that modulates intercellular junctions]",time window in which acceptor concentration plateaued / leveled off,,2 to 6 h
C[C@@H](O)[C@@H]1NC(=O)[C@H](CCCCN)NC(=O)[C@@H](Cc2c[nH]c3ccccc23)NC(=O)[C@H](Cc2ccccc2)NC(=O)[C@@H](NC(=O)[C@H](N)Cc2ccccc2)CSSC[C@@H](C(=O)N[C@H](CO)[C@@H](C)O)NC1=O [Octreotide],time window in which acceptor concentration plateaued,donor 133 μg/mL,4 to 6 h
same,maximum concentration in the acceptor chamber,donor 133 μg/mL,0.00593 mg/mL
same,time window in which acceptor concentration plateaued,donor 266 μg/mL,2 to 6 h
same,maximum concentration in the acceptor chamber,donor 266 μg/mL,0.0116 mg/mL
CC(C)[C@@H]1NC(=O)[C@H](CCCCN)NC(=O)[C@@H](Cc2c[nH]c3ccccc23)NC(=O)[C@H](Cc2ccc(O)cc2)NC(=O)[C@@H](NC(=O)[C@H](N)Cc2ccc3ccccc3c2)CSSC[C@@H](C(=O)N[C@H](C(N)=O)[C@@H](C)O)NC1=O [Lanreotide],time window in which acceptor concentration plateaued / leveled off,,4 to 6 h
